{"source": "patent US20230364254A1", "about": "“METHODS FOR TREATING CANCERS WITH ANTIBODY DRUG CONJUGATES (ADC) THAT BIND TO 191P4D12 PROTEINS” (priority 2020, published 2023)", "key": {"[1]": {"tested_on": "patients treated with enfortumab vedotin", "experiment": "Phase 1 study ASG-22CE-13-2 of enfortumab vedotin: dermatologic and corneal adverse events", "assay_type": "in vivo, human", "from_the_text": "In the phase 1 study (Study ASG-22CE-13-2), rash and similar dermatologic AEs were common among patients treated with enfortumab vedotin, and were seen more frequently at the highest dose. Although the exact etiology of dermatologic toxicities associated with enfortumab vedotin is unclear at this time, due to the expression of Nectin-4 in the skin, rash may be an on-target toxicity. The most common dermatological AEs reported in ASG-22CE-13-2 were drug eruption, rash, skin exfoliation, skin pigmentation disorder, and rash maculo-papular. Most occurred during Cycle 1, and some were associated with pruritus. Almost all were mild, with the exception of two events of rash reported as Grade 3 in the 1 mg/kg dose group. […] Mild rash related to enfortumab vedotin should be treated using local supportive care as needed. Topical corticosteroids have been used along with antihistamines for pruritus as needed.\nSlit lamp examinations will be conducted on at least the first 60 enrolled patients (from Cohorts 1 and/or 2) on Cycle 2 Day 22 (±1 week) and Cycle 6 Day 22 (±1 week). If corneal AEs are observed in <15% of the first 60 enrolled patients and if the events are generally low grade or asymptomatic, the IDMC may make a recommendation to cease Cycle 2 Day 22 and/or Cycle 6 Day 22 slit lamp exams for the remaining patients if warranted based on review of the cumulative ocular safety data. Based on the results from the Phase 1 study (Study ASG-22CE-13-2), as of the data cut-off date of 14 Nov. 2016, there were 3 patients who reported experiencing corneal adverse events out of 33 patients on […] of enfortumab vedotin. Assuming an event rate of 9% (3/33), with a sample size of 60, the probability of observing >3 events (5%) is 80.0% and the probability of observing <9 events (15%) is 91.2%. If the event rate is higher, the probability of observing <9 events is decreased. For example, if the event rate is 20%, the probability of observing <9 events is decreased to 12.7%. Based on the analysis described above and the review of cumulative ocular safety data, the IDMC recommended that the Cycle 2 Day 22 and Cycle 6 Day 22 slit lamp exams be discontinued in July 2018 and August 2019, respectively."}, "[2]": {"tested_on": "locally advanced or metastatic urothelial cancer", "experiment": "Phase 2 single-arm, open-label study of enfortumab vedotin 1.25 mg/kg IV on Days 1, 8, 15 of each 28-day cycle: efficacy (confirmed ORR, DOR, PFS per RECIST 1.1 by BICR; OS)", "assay_type": "in vivo, human", "conditions": "for ORR point estimates for all subgroups: ORR subgroup analysis", "from_the_text": "This is a single-arm, open-label, multicenter trial designed to assess the efficacy and safety of enfortumab vedotin as a single agent in locally advanced or metastatic urothelial cancer patients who have previously received systemic therapy with a CPI. For the purpose of this study a CPI is defined as a programmed cell death protein 1 (PD-1) inhibitor or programmed death-ligand 1 (PD-L1) inhibitor (including, but not limited to: atezolizumab, pembrolizumab, durvalumab, avelumab, and nivolumab). Patients must either have received prior treatment with platinum-containing chemotherapy (Cohort 1) or received no prior treatment with platinum-containing or other chemotherapy and are ineligible for treatment with cisplatin at time of enrollment (Cohort 2).\nEnfortumab vedotin at a dose of 1.25 mg/kg will be administered as an intravenous (IV) infusion over approximately 30 minutes on Days 1, 8, and 15 of each 28-day cycle. Patients will continue to receive study treatment until disease progression, unacceptable toxicity, investigator decision, consent withdrawal, start of a subsequent anticancer therapy, pregnancy, or study termination by the sponsor. After discontinuation of study treatment, patients will be followed every 8 weeks (1 week) for response assessments, ECOG performance status, and physical exams. After 1 year of on study, the frequency of follow-up exams including response assessments will be reduced to every 12 weeks (+1 week). Patients that have progressed or begun subsequent anticancer therapy will be contacted every 8 weeks (1 week) up to 1 year on study, and every 12 weeks (+1 week) thereafter to obtain information on subsequent anticancer therapy, and survival status until death, study closure, or withdrawal of consent, whichever occurs first. The study will be closed 5 years after enrollment of the last patient, or when no patients remain in long-term follow-up, whichever occurs first. Additionally, the sponsor may terminate the study at any time.\nMeasures of anticancer activity will be assessed by computed tomography (CT) scans with contrast approximately every 8 weeks (±1 week). After 1 year on study, response assessments will be reduced to every 12 weeks (±1 week). The schedule of response assessments should not be adjusted for dose delays/interruptions or other reasons for changes in the timing of a patient's study activities; timepoints for response assessments should be calculated from Cycle 1 Day 1 during treatment. For patients who cannot receive CT scans with contrast, other protocol-specified imaging methods may be used. Patients must be evaluated using the same imaging method throughout the study for efficacy assessments. CT scans with contrast at the minimum will include the chest, abdomen, and pelvis. Other regions should be scanned if the patient has known or suspected disease in that region. Responses (complete response (CR) or partial response (PR)) will be confirmed with repeat scans 4 weeks (+1 week window) after first documentation of response. The determination of antitumor activity will be based on confirmed objective response assessments as defined by RECIST Version 1.1.\nResponse and progression will be assessed by an independent review facility (IRF). The investigator will make treatment decisions based on site assessments of scans by RECIST.\nThe primary endpoint of this study is the confirmed ORR per IRF. The ORR is defined as the proportion of patients with confirmed CR or PR according to RECIST Version 1.1. The ORR per IRF and its exact 2-sided 95% confidence interval (CI) using the Clopper-Pearson method (Clopper et al., Biometrika (1934); 26(4): 404-413) will be calculated.\nThe primary efficacy endpoint of this study is ORR (confirmed CR or PR per Response Evaluation Criteria in Solid Tumors (RECIST) Version 1.1) as determined by blinded independent central review (BICR) by an independent review facility (IRF). […]"}, "[3]": {"conditions": "Cohort 2 (N = 89), BICR, additional 3 months follow-up"}, "[4]": {"conditions": "Cohort 2 (N = 89), BICR, primary analysis"}, "[5]": {"conditions": "Cohort 2, BICR, additional 3 months follow-up"}, "[6]": {"conditions": "Cohort 2, BICR, primary analysis"}, "[7]": {"conditions": "Cohort 2, Kaplan-Meier, additional 3 months follow-up"}, "[8]": {"conditions": "Cohort 2, additional 3 months follow-up"}}}
{"substance": "enfortumab vedotin: Nectin-4 directed ADC: fully human anti-nectin-4 IgG1 kappa antibody (AGS-22C3) conjugated to MMAE via protease-cleavable maleimidocaproyl valine-citrulline linker", "values": [{"measurement": "dermatological AEs that required discontinuation of study drug", "setting": "[1]", "result": "None"}, {"measurement": "events of rash reported as Grade 3", "setting": "[1]; 1 mg/kg dose group", "result": "two"}, {"measurement": "corneal adverse event rate (3/33)", "setting": "[1]; 1.25 mg/kg", "result": 9, "unit": "%"}, {"measurement": "events of Grade 1 papular rash that required a dose reduction", "setting": "[1]; 1.25 mg/kg", "result": "one"}, {"measurement": "patients who reported experiencing corneal adverse events", "setting": "[1]; out of 33 patients on 1.25 mg/kg, data cut-off 14 Nov. 2016", "result": 3}, {"measurement": "Best Overall Response: Complete Response (CR)", "setting": "[2]; [3]", "result": "20 (22.5) n (%)"}, {"measurement": "Best Overall Response: Not Evaluable (NE)", "setting": "[2]; [3]", "result": "8 (9.0) n (%)"}, {"measurement": "Best Overall Response: Partial Response (PR)", "setting": "[2]; [3]", "result": "25 (28.1) n (%)"}, {"measurement": "Best Overall Response: Progressive Disease (PD)", "setting": "[2]; [3]", "result": "19 (10.1) n (%)"}, {"measurement": "ORR (CR or PR)", "setting": "[2]; [3]", "result": "45 (50.6) n (%)"}, {"measurement": "Best Overall Response: Complete Response (CR)", "setting": "[2]; [4]", "result": "18 (20.2) n (%)"}, {"measurement": "Best Overall Response: Not Evaluable (NE)", "setting": "[2]; [4]", "result": "8 (9.0) n (%)"}, {"measurement": "Best Overall Response: Partial Response (PR)", "setting": "[2]; [4]", "result": "28 (31.5) n (%)"}, {"measurement": "Best Overall Response: Progressive Disease (PD)", "setting": "[2]; [4]", "result": "8 (9.0) n (%)"}, {"measurement": "ORR (CR or PR)", "setting": "[2]; [4]", "result": "46 (51.7) n (%)"}, {"measurement": "Number of responders (confirmed CR or PR)", "setting": "[2]; Cohort 2 (N = 89), additional 3 months follow-up", "result": 45}, {"measurement": "95% CI of confirmed ORR", "setting": "[2]; [5]", "result": "39.8-61.3%"}, {"measurement": "CR among treated patients", "setting": "[2]; [5]", "result": 22, "unit": "%"}, {"measurement": "confirmed ORR", "setting": "[2]; [5]", "result": 51, "unit": "%"}, {"measurement": "CR (complete response rate)", "setting": "[2]; [6]", "result": 20.2, "unit": "%"}, {"measurement": "ORR", "setting": "[2]; [6]", "result": 51.7, "unit": "%"}, {"measurement": "median DOR", "setting": "[2]; [6]", "result": 10.9, "unit": "months"}, {"measurement": "median PFS", "setting": "[2]; [6]", "result": 5.8, "unit": "months"}, {"measurement": "participants with reduction in tumor measurements", "setting": "[2]; [6]", "result": 88, "unit": "%"}, {"measurement": "responders with ongoing response (18 out of 46)", "setting": "[2]; [6]", "result": 39, "unit": "%"}, {"measurement": "% Responders without PD or death (95% CI)", "setting": "[2]; [7]", "result": "35.8 (14.49, 57.91) %"}, {"measurement": "% Responders without PD or death at 6 months (95% CI)", "setting": "[2]; [7]", "result": "67.9 (51.11, 79,95) %"}, {"measurement": "% Responders without PD or death at 12 months (95% CI)", "setting": "[2]; [7]", "result": "53.7 (35.51, 68.85) %"}, {"measurement": "Duration of response, 25th percentile", "setting": "[2]; [7]", "result": "5.8, − months"}, {"measurement": "Duration of response, Median (95% CI)", "setting": "[2]; [7]", "result": "13.8 (6.41, −) months"}, {"measurement": "ORR point estimates for all subgroups", "setting": "[2]; [8]", "result": "more than 40%"}, {"measurement": "ORR point estimates for all subgroups", "setting": "[2]; Cohort 2, primary analysis", "result": "more than 40%"}, {"measurement": "95% CI of median PFS", "setting": "[2]; [8]", "result": "5.0(8.3) months"}, {"measurement": "median DOR", "setting": "[2]; [8]", "result": 13.8, "unit": "months"}, {"measurement": "median PFS", "setting": "[2]; [8]", "result": 6.7, "unit": "months"}, {"measurement": "median OS", "setting": "[2]; Cohort 2, additional 3 months follow-up, median follow-up 16.0 months", "result": 16.1, "unit": "months"}, {"measurement": "ORR", "setting": "[2]; Cohort 2, patients who did not respond to prior PD-1/PD-L1 inhibitors, additional 3 months follow-up", "result": 46, "unit": "%"}, {"measurement": "ORR", "setting": "[2]; Cohort 2, patients with liver metastasis, additional 3 months follow-up", "result": 43, "unit": "%"}, {"measurement": "ORR", "setting": "[2]; Cohort 2, patients with primary tumor sites in the upper tract, additional 3 months follow-up", "result": 58, "unit": "%"}, {"measurement": "median OS", "setting": "[2]; Cohort 2, primary analysis, median follow-up 13.4 months", "result": 14.7, "unit": "months"}]}
